In patent EP4603105A1, “PHARMACEUTICAL COMPOSITION CONTAINING CYCLIC COMPOUND HAVING SELECTIVE KRAS INHIBITORY EFFECT AGAINST HRAS AND NRAS” (CHUGAI SEIYAKU KABUSHIKI KAISHA, priority 2022, dated 2024):
pIC50: −log10 of the molar value. Where a SMILES comes first, the peptide text is derived from it. Bridges are numbered along the chain shown (N, C = ends). [ ]: non-standard residue; d: D form. The star is where a group is joined. hPhe(3,5-F2-4-CF3) = N[C@@H](CCc1cc(F)c(C(F)(F)F)c(F)c1)C(=O)O; hPhe(3-Cl-4-CF3) = N[C@@H](CCc1ccc(C(F)(F)F)c(Cl)c1)C(=O)O; NPrPhe(4-CF3) = CCCN[C@@H](Cc1ccc(C(F)(F)F)cc1)C(=O)O; NPrPhe(4-Me) = CCCN[C@@H](Cc1ccc(C)cc1)C(=O)O; NMeGly(cPent) = CN[C@H](C(=O)O)C1CCCC1; αMeI = CC[C@H](C)[C@](C)(N)C(=O)O; NMeD = CN[C@@H](CC(=O)O)C(=O)O; NMeL = CN[C@@H](CC(C)C)C(=O)O; Morpholide = C1CN(*)CCO1; Ac5c = NC1(C(=O)O)CCCC1; NEtG = CCNCC(=O)O; Sar = CNCC(=O)O

Legend:
HRAS wild-type protein = HRAS wild-type protein (Homo sapiens, UniProt P01112); experiment: Binding to HRAS by surface plasmon resonance (SPR), KD and KD ratio to KRAS
Chain of HRAS wild-type protein (P01112 whole entry): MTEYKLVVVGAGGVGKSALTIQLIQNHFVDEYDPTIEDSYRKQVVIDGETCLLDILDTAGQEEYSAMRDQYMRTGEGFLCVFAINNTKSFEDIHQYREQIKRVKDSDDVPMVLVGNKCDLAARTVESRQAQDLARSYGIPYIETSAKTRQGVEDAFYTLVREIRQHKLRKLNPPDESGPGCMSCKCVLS
Procedure, shortened: (§1)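 Single-cycle kinetics on GDP-loaded biotin-Avi RAS captured to ~100–300 RU; 75 s ascending injections, 100 µL/min, 30°C. HBS pH 7.4 + 10 mM MgCl2/10 µM GDP/4% DMSO. 1:1 fit, KD.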

[1] = molecular target: GDP-bound NRAS wild-type protein (Homo sapiens, UniProt P01111); experiment: Binding to NRAS by surface plasmon resonance (SPR), KD and KD ratio to KRAS
Chain of GDP-bound NRAS wild-type protein (P01111 whole entry): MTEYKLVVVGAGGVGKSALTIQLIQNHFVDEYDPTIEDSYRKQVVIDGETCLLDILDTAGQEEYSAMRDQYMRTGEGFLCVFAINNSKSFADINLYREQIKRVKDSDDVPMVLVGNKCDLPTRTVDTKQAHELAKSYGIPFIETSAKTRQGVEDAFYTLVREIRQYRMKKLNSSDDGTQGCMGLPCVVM
Procedure, shortened: as §1

[2] = system: human lung cancer strain NCI-H441; type: cell-based
Procedure, shortened: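 Proliferation was scored by […] measured after the reagent was added to cultures kept at 37°C in 5% carbon dioxide.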

[3] = ratio of KD for HRAS wild-type protein to KD for KRAS
[4] = ratio of KD for GDP-bound NRAS wild-type protein to KD for KRAS
[5] = ratio of the KD value with respect to HRAS wild-type protein to the KD value with respect to KRAS
[6] = ratio of the KD value with respect to GDP-bound NRAS wild-type protein to the KD value with respect to KRAS

pIC50 [2] | SMILES | HRAS /KRAS (HRAS wild-type protein; [3]) | NRAS /KRAS [1, 4] | HRAS /KRAS (HRAS wild-type protein; [5]) | NRAS /KRAS [1, 6] | HRAS /KRAS (HRAS wild-type protein; ratio of KD value for HRAS wild-type protein to KD value for KRAS (SPR)) | NRAS /KRAS ([1]; ratio of KD value for GDP-bound NRAS wild-type protein to KD value for KRAS (SPR))
8.14 | CCC[C@H]1C(=O)N[C@@H]([C@@H](C)CC)C(=O)N(C)CC(=O)N(C)[C@H]2C/C=C\CCN(C2=O)[C@@H](Cc2ccc(C(F)(F)F)cc2)C(=O)N(C)CC(=O)N[C@@H](CCc2ccc(Cl)c(C(F)(F)F)c2)C(=O)N2C[C@H](OCC)C[C@H]2C(=O)NC2(CC(C)(C)C2)C(=O)N(C)[C@@H](C2CCCC2)C(=O)N(C)[C@H](C(=O)N(C)C)CC(=O)N1C [PP2784] | A (a compound having 10 or more and less than 20 is denoted as A) | A (a compound having 10 or more and less than 20 is denoted as A) |  |  |  | 
8.37 | CCCN1C(=O)CN(CC)C(=O)CN(C)C(=O)[C@H]([C@@H](C)CC)NC(=O)[C@H](CC(C)C)N(C)C(=O)C[C@@H](C(=O)N2CCOCC2)N(C)C(=O)[C@H](C2CCCC2)N(C)C(=O)C2(CCCC2)NC(=O)[C@@H]2CCCN2C(=O)[C@H](CCc2ccc(C(F)(F)F)c(Cl)c2)NC(=O)CN(C)C(=O)[C@@H]1Cc1ccc(C)cc1 [PP0065] ([NMeL]I[Sar][NEtG][NPrPhe(4-Me)][Sar][hPhe(3-Cl-4-CF3)]P[Ac5c][NMeGly(cPent)][NMeD]-Morpholide; lactam N-11) | C (A compound having a KD ratio of 0.1 or more and less than 3 is denoted as C) | C (A compound having a KD ratio of 0.1 or more and less than 3 is denoted as C) |  |  |  | 
7.88 | CCO[C@@H]1C[C@H]2C(=O)NC3(CCC3)C(=O)N(C)[C@@H](C3CCCC3)C(=O)N(C)[C@H](C(=O)N(C)C)CC(=O)N(C)[C@H]3CCCCCCc4ccc(cc4)C[C@@H](C(=O)N(C)CC(=O)N[C@@H](CCc4ccc(C(F)(F)F)c(OC)c4)C(=O)N2C1)N1CC/C=C\C[C@@H](C1=O)N(C)C(=O)CN(C)C(=O)[C@H]([C@@H](C)CC)NC3=O [PP2264] |  |  | A (a compound having 10 or more and less than 20 is denoted as A) | AA (a compound having 20 or more is denoted as AA) |  | 
7.81 | CC[C@H](C)[C@@H]1NC(=O)[C@H](CC(F)F)N(C)C(=O)C[C@@H](C(=O)N(C)CC)N(C)C(=O)[C@H](C2CCCC2)N(C)C(=O)C2(CC(C)(C)C2)NC(=O)[C@@H]2C[C@@H](C)CN2C(=O)[C@H](CCc2ccc(C(F)(F)F)c(Cl)c2)NC(=O)CN(C)C(=O)[C@H](Cc2ccc(C)cc2)N2CC/C=C\C[C@@H](C2=O)N(C)C(=O)CN(C)C1=O [PP1837] |  |  |  |  | A (a compound having 10 or more and less than 20 is denoted as A) | A (a compound having 10 or more and less than 20 is denoted as A)
7.54 | CCC[C@H]1C(=O)N[C@@H]([C@@H](C)CC)C(=O)N(C)CC(=O)N(C)[C@H]2C/C=C\CCN(C2=O)[C@@H](Cc2ccc(C(F)(F)F)cc2)C(=O)N(C)CC(=O)N[C@@H](CCc2ccc(CC)c(Cl)c2)C(=O)N2C[C@H](OCC)C[C@H]2C(=O)NC2(CC(C)(C)C2)C(=O)N(C)[C@@H](C2CCCC2)C(=O)N(C)[C@H](C(=O)N(C)C)CC(=O)N1C [PP2848] | A (a compound having 10 or more and less than 20 is denoted as A) | A (a compound having 10 or more and less than 20 is denoted as A) |  |  |  | 
7.01 | CCO[C@@H]1C[C@H]2C(=O)NC3(CCC3)C(=O)N(C)[C@@H](C3CCCC3)C(=O)N(C)[C@H](C(=O)N(C)C)CC(=O)N(C)[C@@H](CC)C(=O)N[C@@H]([C@@H](C)CC)C(=O)N(C)CC(=O)N(C)[C@H]3CC(C)=CCN(C3=O)[C@@H](Cc3ccc(C(F)(F)F)cc3)C(=O)N(C)CC(=O)N[C@@H](CCc3cc(F)c(C(F)(F)F)c(F)c3)C(=O)N2C1 [PP1034] | C (A compound having a KD ratio of 0.1 or more and less than 3 is denoted as C) | C (A compound having a KD ratio of 0.1 or more and less than 3 is denoted as C) |  |  |  | 
6.32 | CCCN1C(=O)CN(C)C(=O)CN(C)C(=O)[C@H]([C@@H](C)CC)NC(=O)[C@H](CC(C)C)N(C)C(=O)C[C@@H](C(=O)N2CCOCC2)N(C)C(=O)[C@H](C2CCCC2)N(C)C(=O)[C@](C)([C@@H](C)CC)NC(=O)[C@@H]2CCCN2C(=O)[C@H](CCc2cc(F)c(C(F)(F)F)c(F)c2)NC(=O)CN(C)C(=O)[C@@H]1Cc1ccc(C(F)(F)F)cc1 [PP0757] ([NMeL]I[Sar][Sar][NPrPhe(4-CF3)][Sar][hPhe(3,5-F2-4-CF3)]P[αMeI][NMeGly(cPent)][NMeD]-Morpholide; lactam N-11) |  |  | C (A compound having a KD ratio of 0.1 or more and less than 3 is denoted as C) | B (a compound having 3 or more and less than 10 is denoted as B) |  | 
6.92 | CCCN1C(=O)CN(C)C(=O)CN(C)C(=O)[C@H]([C@@H](C)CC)NC(=O)[C@@H]2CCCCCCC[C@@](C)(NC(=O)[C@@H]3C[C@@H](OCC)CN3C(=O)[C@H](CCc3cc(F)c(C(F)(F)F)c(F)c3)NC(=O)CN(C)C(=O)[C@@H]1Cc1ccc(C(F)(F)F)cc1)C(=O)N(C)[C@@H](C1CCCC1)C(=O)N(C)[C@H](C(=O)N1CCOCC1)CC(=O)N2C [PP0898] | B (a compound having 3 or more and less than 10 is denoted as B) | B (a compound having 3 or more and less than 10 is denoted as B) |  |  |  | 
